In ChEMBL document CHEMBL1909046, “DrugMatrix in vitro pharmacology data”:

Legend:
Endothelin-1 receptor = biological target: T1, Endothelin-1 receptor (Homo sapiens, UniProt P25101); format: cell membranes, Membrane; settings: cho-k1; also: in other assays of this panel Not Active means under 50% inhibition at 10 µM
T1 sequence (P25101 whole entry): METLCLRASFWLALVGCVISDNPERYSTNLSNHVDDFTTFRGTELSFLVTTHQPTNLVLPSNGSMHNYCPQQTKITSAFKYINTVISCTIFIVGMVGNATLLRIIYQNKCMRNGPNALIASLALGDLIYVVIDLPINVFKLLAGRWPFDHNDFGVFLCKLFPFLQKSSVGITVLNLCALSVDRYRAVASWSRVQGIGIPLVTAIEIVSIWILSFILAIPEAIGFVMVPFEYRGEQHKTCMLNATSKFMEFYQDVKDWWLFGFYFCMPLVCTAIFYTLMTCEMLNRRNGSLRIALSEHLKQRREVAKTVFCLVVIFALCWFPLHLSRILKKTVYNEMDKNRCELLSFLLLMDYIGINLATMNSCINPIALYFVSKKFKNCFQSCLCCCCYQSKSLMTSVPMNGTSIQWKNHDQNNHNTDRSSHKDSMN

Histamine H2 receptor = Histamine H2 receptor (Homo sapiens, UniProt P25021); format: cell membranes, CHO-K1, Membrane; settings: cho-k1; also: in other assays of this panel Not Active means under 50% inhibition at 10 µM
Histamine H2 receptor, sequence (P25021 whole entry): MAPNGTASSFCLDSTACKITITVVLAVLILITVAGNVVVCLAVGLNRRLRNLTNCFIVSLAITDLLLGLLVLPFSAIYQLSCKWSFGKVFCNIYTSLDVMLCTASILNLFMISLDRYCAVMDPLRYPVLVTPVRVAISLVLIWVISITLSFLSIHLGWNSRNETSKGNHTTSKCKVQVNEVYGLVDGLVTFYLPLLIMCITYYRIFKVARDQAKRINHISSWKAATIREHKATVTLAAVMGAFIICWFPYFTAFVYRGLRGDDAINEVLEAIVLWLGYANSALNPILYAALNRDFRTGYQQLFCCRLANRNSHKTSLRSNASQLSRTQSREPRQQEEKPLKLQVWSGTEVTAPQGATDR

[1] = biological target: T2, Alpha-2C adrenergic receptor (Homo sapiens, UniProt P18825); test: DRUGMATRIX: Adrenergic Alpha-2C radioligand binding (ligand: [3H] MK-912); format: cell membranes, Sf9, Membrane; settings: sf9
T2 sequence (P18825 whole entry): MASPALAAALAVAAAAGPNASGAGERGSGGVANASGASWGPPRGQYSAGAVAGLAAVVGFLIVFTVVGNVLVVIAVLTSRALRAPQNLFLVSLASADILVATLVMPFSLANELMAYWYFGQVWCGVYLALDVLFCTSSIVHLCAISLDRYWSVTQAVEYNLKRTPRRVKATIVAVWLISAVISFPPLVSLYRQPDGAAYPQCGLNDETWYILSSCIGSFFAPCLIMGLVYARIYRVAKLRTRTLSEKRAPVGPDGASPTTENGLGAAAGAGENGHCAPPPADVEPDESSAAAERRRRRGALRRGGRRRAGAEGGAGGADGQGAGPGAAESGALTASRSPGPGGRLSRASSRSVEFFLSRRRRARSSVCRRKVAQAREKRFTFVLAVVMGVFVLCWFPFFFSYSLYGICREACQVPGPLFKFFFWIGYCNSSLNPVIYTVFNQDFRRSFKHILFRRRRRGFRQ

[2] = biological target: C-C chemokine receptor type 2 (Homo sapiens, UniProt P41597); format: cell membranes, CHO-K1, Membrane; settings: cho-k1; also: in other assays of this panel Not Active means under 50% inhibition at 10 µM
C-C chemokine receptor type 2, sequence (P41597 whole entry): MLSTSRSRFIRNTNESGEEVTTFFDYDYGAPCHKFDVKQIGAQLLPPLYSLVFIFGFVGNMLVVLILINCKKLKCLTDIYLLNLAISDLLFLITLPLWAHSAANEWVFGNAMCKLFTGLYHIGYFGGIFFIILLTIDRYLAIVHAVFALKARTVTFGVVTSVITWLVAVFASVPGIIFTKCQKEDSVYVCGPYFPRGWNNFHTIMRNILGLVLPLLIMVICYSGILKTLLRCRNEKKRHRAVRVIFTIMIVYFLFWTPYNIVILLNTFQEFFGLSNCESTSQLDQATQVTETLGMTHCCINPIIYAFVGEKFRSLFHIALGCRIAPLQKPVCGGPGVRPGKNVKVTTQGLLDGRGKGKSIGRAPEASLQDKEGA

[3] = biological target: T3, Receptor-type tyrosine-protein phosphatase C (Homo sapiens, UniProt P08575); design: species or system Escherichia coli;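 also: inhibition of CD45 enzyme activity measured using DiFMUP as substrate; in other assays of this panel Not Active means under 50% inhibition at 10 µM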
T3 sequence (P08575 whole entry): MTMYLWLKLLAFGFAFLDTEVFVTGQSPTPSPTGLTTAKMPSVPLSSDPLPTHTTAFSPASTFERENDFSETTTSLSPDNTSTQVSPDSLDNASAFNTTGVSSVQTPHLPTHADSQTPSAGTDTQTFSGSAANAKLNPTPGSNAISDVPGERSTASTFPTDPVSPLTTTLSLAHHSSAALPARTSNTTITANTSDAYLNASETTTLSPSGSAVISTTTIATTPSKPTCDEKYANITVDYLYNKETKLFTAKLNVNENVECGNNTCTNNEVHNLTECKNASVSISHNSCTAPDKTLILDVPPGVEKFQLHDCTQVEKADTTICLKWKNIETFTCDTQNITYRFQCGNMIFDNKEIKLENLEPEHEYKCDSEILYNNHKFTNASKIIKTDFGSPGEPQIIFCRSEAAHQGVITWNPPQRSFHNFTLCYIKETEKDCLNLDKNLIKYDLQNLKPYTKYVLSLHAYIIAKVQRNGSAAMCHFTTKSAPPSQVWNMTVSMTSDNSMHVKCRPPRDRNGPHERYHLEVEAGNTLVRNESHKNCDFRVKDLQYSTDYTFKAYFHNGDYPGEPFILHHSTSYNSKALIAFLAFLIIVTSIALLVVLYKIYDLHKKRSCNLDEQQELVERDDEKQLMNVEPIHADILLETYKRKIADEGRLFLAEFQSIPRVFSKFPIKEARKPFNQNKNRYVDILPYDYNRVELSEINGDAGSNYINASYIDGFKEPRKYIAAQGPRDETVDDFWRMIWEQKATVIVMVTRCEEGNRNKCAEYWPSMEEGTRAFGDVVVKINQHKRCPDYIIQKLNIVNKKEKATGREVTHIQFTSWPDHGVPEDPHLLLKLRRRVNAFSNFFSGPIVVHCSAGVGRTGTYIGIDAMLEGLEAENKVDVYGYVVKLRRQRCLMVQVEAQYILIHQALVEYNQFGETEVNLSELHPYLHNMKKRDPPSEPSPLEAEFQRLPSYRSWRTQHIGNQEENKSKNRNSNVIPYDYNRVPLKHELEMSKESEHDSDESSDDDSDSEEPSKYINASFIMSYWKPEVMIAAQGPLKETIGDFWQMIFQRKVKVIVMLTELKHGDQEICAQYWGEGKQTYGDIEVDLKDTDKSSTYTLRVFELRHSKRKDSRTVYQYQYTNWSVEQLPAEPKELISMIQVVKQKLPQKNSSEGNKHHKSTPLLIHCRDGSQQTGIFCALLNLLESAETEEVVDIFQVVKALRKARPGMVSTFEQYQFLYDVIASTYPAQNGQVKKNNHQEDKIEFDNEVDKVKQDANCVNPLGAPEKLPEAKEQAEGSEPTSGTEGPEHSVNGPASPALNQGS

[4] = biological target: Protein kinase C alpha type (Homo sapiens, UniProt P17252); format: cell-based; settings: sf9
[5] = DRUGMATRIX: Tumor Necrosis Factor (TNF), Non-Selective radioligand binding (ligand: [125I] TNF-alpha); format: cell membranes, Membrane; settings: u-937; Not Active = under 50% inhibition at 10 µM

Cc1ccnc(NS(=O)(=O)c2ccc(N)cc2)n1 [SULFAMERAZINE]
Not Active: IC50 (Endothelin-1 receptor) | IC50 (Histamine H2 receptor) | IC50 [1] | IC50 [2] | IC50 [3] | IC50 [4] | IC50 [5] | Ki [5]

Cc1nnc(NS(=O)(=O)c2ccc(N)cc2)s1 [SULFAMETHIZOLE]
Not Active: IC50 (Endothelin-1 receptor) | IC50 (Histamine H2 receptor) | IC50 [1] | IC50 [2] | IC50 [3] | IC50 [4] | IC50 [5] | Ki [5]

O=C(O)c1cc(/N=N/c2ccc(S(=O)(=O)Nc3ccccn3)cc2)ccc1O [SULFASALAZINE]
Not Active: IC50 (Endothelin-1 receptor) | IC50 (Histamine H2 receptor) | IC50 [1] | IC50 [2] | IC50 [3] | IC50 [4] | IC50 [5] | Ki [5]

CCN1CCCC1CNC(=O)c1cc(S(N)(=O)=O)ccc1OC (stereo not given) [SULPIRIDE]
Not Active: IC50 (Endothelin-1 receptor) | IC50 (Histamine H2 receptor) | IC50 [1] | IC50 [2] | IC50 [3] | IC50 [4] | IC50 [5] | Ki [5]

O=C(OC[C@H]1O[C@@H](OC(=O)c2cc(O)c(O)c(OC(=O)c3cc(O)c(O)c(O)c3)c2)[C@H](OC(=O)c2cc(O)c(O)c(OC(=O)c3cc(O)c(O)c(O)c3)c2)[C@@H](OC(=O)c2cc(O)c(O)c(OC(=O)c3cc(O)c(O)c(O)c3)c2)[C@@H]1OC(=O)c1cc(O)c(O)c(OC(=O)c2cc(O)c(O)c(O)c2)c1)c1cc(O)c(O)c(OC(=O)c2cc(O)c(O)c(O)c2)c1 [TANNIC ACID]
Not Active: IC50 (Endothelin-1 receptor) | IC50 (Histamine H2 receptor) | IC50 [1] | IC50 [2] | IC50 [3] | IC50 [4] | IC50 [5] | Ki [5]

C#C[C@]1(O)CC[C@H]2[C@@H]3[C@H](C)CC4=C(CCC(=O)C4)[C@H]3CC[C@@]21C [TIBOLONE]
Not Active: IC50 (Endothelin-1 receptor) | IC50 (Histamine H2 receptor) | IC50 [1] | IC50 [2] | IC50 [3] | IC50 [4] | IC50 [5] | Ki [5]

Cc1cccc(C)c1NC(=O)C(C)N (stereo not given) [TOCAINIDE]
Not Active: IC50 (Endothelin-1 receptor) | IC50 (Histamine H2 receptor) | IC50 [1] | IC50 [2] | IC50 [3] | IC50 [4] | IC50 [5] | Ki [5]

Cc1ccc(S(=O)(=O)NC(=O)NN2CCCCCC2)cc1 [TOLAZAMIDE]
Not Active: IC50 (Endothelin-1 receptor) | IC50 (Histamine H2 receptor) | IC50 [1] | IC50 [2] | IC50 [3] | IC50 [4] | IC50 [5] | Ki [5]

CC[C@@]1(O)C(=O)OCc2c1cc1n(c2=O)Cc2cc3c(CN(C)C)c(O)ccc3nc2-1 [TOPOTECAN]
Not Active: IC50 (Endothelin-1 receptor) | IC50 (Histamine H2 receptor) | IC50 [1] | IC50 [2] | IC50 [3] | IC50 [4] | IC50 [5] | Ki [5]

CC1=C(/C=C/C(C)=C/C=C/C(C)=C/C(=O)O)C(C)(C)CCC1 [TRETINOIN]
Not Active: IC50 (Endothelin-1 receptor) | IC50 (Histamine H2 receptor) | IC50 [1] | IC50 [2] | IC50 [3] | IC50 [4] | IC50 [5] | Ki [5]

CC(Cl)(Cl)Cl [TRICHLOROETHANE]
Not Active: IC50 (Endothelin-1 receptor) | IC50 (Histamine H2 receptor) | IC50 [1] | IC50 [2] | IC50 [3] | IC50 [4] | IC50 [5] | Ki [5]

CN1C(=O)OC(C)(C)C1=O [TRIMETHADIONE]
Not Active: IC50 (Endothelin-1 receptor) | IC50 (Histamine H2 receptor) | IC50 [1] | IC50 [2] | IC50 [3] | IC50 [4] | IC50 [5] | Ki [5]

LEAD(IV) ACETATE
Not Active: IC50 (Endothelin-1 receptor) | Ki (Endothelin-1 receptor) | IC50 (Histamine H2 receptor) | Ki (Histamine H2 receptor) | IC50 [1] | Ki [1] | IC50 [2] | Ki [2] | IC50 [3] | Ki [3] | IC50 [4] | Ki [4] | IC50 [5] | Ki [5]
